pIC50: −log10 of the molar value. One block for each compound: values may come before it.
Experiments:
[1] = molecular target: Platelet-derived growth factor receptor beta (Homo sapiens, UniProt P09619)
Description: Inhibition of PDGFR-beta (unknown origin)

[2] = molecular target: T1, Receptor-type tyrosine-protein kinase FLT3 (Homo sapiens, UniProt P36888)
T1 sequence (P36888 whole entry): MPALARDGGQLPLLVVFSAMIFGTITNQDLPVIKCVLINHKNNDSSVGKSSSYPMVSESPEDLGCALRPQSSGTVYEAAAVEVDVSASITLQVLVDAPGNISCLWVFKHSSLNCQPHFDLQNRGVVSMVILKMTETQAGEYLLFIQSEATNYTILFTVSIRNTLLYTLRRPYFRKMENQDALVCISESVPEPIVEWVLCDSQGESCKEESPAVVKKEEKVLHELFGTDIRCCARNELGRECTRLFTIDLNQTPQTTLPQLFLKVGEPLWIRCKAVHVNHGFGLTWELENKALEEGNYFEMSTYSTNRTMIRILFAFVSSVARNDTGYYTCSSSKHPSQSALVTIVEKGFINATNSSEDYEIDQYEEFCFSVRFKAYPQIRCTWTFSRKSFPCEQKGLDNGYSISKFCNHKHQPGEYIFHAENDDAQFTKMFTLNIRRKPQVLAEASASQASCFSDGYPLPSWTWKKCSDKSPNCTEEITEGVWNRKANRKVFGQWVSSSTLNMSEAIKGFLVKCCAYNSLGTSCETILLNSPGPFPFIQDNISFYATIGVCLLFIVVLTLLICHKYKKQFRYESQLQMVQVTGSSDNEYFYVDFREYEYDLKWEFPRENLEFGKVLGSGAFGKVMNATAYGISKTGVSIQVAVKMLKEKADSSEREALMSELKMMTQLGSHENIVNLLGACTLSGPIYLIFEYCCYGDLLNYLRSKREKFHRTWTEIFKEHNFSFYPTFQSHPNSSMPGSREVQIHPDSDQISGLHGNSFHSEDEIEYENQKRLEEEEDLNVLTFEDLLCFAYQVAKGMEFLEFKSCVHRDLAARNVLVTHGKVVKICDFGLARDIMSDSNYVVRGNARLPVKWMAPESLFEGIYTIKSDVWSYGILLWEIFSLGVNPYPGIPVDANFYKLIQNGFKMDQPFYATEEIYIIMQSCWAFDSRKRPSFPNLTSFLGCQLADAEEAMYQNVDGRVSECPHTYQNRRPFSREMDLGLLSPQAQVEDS
Description: Inhibition of FLT3 (unknown origin)

[3] = molecular target: Platelet-derived growth factor receptor alpha (Homo sapiens, UniProt P16234)
Description: Inhibition of PDGFR-alpha (unknown origin)

[4] = molecular target: Voltage-gated inwardly rectifying potassium channel KCNH2 (Homo sapiens, UniProt Q12809); assay: Inhibition of hERG; format: toxicity
[5] = molecular target: Vascular endothelial growth factor receptor 2 (Homo sapiens, UniProt P35968); assay: Inhibition of KDR (unknown origin)
[6] = tested on: Huh-7; assay: Anti-proliferative activity against human Huh-7 cells
[7] = tested on: HCT-116; assay: cells; conditions: Homo sapiens
Description: Anti-proliferative activity against human HCT-116 cells

[8] = tested on: HepG2; assay: Anti-proliferative activity against human HepG2 cells
[9] = tested on: Hep 3B2; assay: Anti-proliferative activity against human Hep3B cells
[10] = tested on: HT-29; assay: Anti-proliferative activity against human HT-29 cells
[11] = tested on: Hep 3B2; assay: Antitumor activity against human Hep3B cells xenografted in BALB/c mouse at 60 mg/kg, po qd treated for 10 days followed by discontinuation of administration and re-continuation on day 18 measured after 7 days relative to control; conditions: read-out: TGI
[12] = tested on: SNU-16; assay: Anti-proliferative activity against human SNU-16 cells; format: functional, cell-based
[13] = Toxicity in BALB/c mouse xenografted with human Hep3B cells assessed as body weight loss at 60 mg/kg, po qd measured for 25 days; format: organism-based; conditions: in vivo, 600 h, time 25 day
[14] = Anti-proliferative activity against human KATO III cells

Sequence of Platelet-derived growth factor receptor alpha (P16234 whole entry): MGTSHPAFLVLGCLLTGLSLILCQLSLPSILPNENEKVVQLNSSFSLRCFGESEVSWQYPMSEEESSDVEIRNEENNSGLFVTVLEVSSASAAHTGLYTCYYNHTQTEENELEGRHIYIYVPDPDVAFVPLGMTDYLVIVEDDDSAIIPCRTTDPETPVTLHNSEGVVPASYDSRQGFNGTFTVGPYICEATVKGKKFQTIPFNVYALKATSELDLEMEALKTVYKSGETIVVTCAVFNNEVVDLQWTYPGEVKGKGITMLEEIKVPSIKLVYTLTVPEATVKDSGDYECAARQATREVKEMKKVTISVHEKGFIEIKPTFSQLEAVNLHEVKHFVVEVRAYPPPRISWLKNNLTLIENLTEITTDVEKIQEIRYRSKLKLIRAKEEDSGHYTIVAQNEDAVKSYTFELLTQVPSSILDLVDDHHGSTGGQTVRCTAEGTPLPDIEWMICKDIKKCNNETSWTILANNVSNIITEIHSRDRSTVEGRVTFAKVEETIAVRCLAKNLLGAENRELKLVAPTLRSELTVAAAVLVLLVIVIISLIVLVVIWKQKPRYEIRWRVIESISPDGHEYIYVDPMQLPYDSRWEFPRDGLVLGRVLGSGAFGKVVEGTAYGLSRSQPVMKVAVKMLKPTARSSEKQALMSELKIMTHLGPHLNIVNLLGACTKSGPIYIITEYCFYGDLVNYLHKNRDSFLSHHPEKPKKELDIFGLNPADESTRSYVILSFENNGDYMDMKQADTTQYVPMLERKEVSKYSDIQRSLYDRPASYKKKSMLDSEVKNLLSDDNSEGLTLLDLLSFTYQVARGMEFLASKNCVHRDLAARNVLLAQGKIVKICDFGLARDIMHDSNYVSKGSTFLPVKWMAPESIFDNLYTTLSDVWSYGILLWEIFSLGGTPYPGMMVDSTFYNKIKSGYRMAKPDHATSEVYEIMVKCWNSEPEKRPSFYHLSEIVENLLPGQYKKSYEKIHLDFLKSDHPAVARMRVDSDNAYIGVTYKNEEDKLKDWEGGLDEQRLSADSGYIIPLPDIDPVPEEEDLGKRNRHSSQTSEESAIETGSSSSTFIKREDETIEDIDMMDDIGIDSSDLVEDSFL
Sequence of Platelet-derived growth factor receptor beta (P09619 whole entry): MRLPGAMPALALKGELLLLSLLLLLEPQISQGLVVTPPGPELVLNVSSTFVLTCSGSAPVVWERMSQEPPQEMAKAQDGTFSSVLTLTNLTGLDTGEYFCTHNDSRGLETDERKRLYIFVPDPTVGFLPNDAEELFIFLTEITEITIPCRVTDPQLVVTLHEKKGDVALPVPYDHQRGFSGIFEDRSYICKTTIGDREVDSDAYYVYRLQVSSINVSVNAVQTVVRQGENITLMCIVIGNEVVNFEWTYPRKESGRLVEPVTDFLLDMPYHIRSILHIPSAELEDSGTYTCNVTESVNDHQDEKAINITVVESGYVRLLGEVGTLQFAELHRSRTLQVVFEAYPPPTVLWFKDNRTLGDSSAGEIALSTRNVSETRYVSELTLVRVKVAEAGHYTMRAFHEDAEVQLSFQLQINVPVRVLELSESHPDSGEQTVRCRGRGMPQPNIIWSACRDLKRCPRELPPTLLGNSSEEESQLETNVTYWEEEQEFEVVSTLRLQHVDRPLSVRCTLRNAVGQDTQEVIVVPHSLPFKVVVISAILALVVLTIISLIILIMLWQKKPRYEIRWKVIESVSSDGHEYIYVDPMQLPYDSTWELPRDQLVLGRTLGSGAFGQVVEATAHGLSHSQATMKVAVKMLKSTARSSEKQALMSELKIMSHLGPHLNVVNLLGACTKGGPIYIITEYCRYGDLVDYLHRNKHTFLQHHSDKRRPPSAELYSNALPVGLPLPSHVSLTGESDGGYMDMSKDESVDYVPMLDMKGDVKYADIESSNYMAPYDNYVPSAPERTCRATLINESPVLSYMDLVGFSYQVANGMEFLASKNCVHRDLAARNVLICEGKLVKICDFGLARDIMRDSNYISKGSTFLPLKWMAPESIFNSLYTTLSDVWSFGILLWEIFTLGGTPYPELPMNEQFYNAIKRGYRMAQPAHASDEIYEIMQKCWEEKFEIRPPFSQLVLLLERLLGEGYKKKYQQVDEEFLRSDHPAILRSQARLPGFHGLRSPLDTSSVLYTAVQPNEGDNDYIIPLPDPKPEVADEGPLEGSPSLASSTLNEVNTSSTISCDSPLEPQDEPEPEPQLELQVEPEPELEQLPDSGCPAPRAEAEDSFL
Sequence of Voltage-gated inwardly rectifying potassium channel KCNH2 (Q12809 whole entry): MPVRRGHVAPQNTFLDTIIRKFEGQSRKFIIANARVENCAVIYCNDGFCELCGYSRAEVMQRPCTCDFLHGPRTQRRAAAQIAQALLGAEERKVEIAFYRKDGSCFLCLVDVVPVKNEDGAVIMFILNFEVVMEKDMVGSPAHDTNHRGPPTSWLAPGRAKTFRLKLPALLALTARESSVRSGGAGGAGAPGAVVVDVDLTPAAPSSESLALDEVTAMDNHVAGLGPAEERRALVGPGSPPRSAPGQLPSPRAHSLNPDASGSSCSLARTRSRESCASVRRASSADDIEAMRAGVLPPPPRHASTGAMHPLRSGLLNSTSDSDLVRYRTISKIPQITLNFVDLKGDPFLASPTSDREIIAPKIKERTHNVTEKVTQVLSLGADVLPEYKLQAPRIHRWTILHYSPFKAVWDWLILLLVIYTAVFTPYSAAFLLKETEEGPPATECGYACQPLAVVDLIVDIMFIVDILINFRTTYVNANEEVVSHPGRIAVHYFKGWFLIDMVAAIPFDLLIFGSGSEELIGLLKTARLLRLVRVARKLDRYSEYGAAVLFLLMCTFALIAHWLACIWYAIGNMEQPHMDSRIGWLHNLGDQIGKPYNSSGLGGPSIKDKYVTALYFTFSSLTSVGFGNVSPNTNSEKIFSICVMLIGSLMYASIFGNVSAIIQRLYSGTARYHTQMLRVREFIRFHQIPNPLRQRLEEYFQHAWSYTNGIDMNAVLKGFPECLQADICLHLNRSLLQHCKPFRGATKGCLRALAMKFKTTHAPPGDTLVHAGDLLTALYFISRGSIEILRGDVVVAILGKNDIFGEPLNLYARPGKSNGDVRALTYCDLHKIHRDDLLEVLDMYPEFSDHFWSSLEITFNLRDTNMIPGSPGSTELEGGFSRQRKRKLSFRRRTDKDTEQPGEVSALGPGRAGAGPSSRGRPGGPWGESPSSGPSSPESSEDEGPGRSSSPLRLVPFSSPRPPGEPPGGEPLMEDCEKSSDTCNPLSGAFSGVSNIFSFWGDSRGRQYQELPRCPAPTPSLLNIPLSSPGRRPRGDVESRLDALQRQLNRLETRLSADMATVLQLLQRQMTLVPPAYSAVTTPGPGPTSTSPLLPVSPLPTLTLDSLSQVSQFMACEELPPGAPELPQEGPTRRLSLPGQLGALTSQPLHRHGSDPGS
Sequence of Vascular endothelial growth factor receptor 2 (P35968 whole entry): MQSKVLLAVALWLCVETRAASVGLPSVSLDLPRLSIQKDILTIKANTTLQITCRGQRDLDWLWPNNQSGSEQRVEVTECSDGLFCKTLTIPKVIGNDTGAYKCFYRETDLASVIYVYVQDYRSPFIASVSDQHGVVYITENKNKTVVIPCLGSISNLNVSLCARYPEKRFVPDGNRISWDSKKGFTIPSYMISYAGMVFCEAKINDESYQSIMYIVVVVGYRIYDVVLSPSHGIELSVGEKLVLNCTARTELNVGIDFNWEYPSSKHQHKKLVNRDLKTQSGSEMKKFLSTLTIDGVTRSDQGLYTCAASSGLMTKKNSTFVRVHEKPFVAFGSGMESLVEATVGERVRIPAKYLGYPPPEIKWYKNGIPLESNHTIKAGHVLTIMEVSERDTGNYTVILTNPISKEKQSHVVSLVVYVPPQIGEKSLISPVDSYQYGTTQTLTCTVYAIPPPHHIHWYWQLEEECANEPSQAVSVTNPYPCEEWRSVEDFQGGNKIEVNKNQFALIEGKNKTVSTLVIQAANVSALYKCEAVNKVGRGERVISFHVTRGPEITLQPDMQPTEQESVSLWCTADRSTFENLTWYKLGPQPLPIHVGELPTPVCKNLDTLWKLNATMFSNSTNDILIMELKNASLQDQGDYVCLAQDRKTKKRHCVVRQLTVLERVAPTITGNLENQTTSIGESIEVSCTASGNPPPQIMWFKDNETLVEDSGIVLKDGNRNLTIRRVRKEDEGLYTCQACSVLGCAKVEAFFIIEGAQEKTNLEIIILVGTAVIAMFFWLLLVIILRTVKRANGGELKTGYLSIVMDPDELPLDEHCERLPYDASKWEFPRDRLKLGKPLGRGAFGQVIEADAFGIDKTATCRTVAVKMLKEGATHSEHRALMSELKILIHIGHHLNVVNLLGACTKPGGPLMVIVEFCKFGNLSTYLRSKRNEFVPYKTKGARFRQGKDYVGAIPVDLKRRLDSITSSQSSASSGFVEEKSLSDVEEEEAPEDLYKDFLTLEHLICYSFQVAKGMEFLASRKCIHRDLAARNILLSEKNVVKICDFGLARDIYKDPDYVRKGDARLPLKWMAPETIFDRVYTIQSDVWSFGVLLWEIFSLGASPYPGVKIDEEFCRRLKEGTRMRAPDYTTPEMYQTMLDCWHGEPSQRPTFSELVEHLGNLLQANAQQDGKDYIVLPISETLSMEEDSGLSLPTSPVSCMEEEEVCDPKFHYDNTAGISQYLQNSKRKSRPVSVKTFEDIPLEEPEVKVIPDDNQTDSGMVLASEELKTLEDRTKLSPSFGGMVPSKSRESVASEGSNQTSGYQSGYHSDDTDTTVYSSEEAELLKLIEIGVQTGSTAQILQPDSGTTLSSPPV

pIC50 [1]: 7.92
pIC50 [2]: 7.66
pIC50 [3]: 7.96
SMILES: CC(C)(C)c1cc(NC(=O)Cc2ccc(-n3cnc4cc(C5CCNCC5)ccc43)cc2)on1

pIC50 [1]: 9.05
pIC50 [2]: 9.48
pIC50 [3]: 9.74
SMILES: CC(C)(C)c1cc(NC(=O)Cc2ccc(-n3cnc4cc(-c5cn[nH]c5)ccc43)cc2)on1
pIC50 [4]: 4.58

pIC50 [1]: 8.94
pIC50 [2]: 9.23
pIC50 [3]: 9.66
SMILES: Cn1cc(-c2ccc3c(c2)ncn3-c2ccc(CC(=O)Nc3cc(C(C)(C)C)no3)cc2)cn1
pIC50 [4]: 4.75

Second part, the compound before the results:

SMILES: CC(C)(C)c1cc(NC(=O)Cc2ccc(-n3cnc4cc(-c5cccnc5)ccc43)cc2)on1
pIC50 [1]: 8.89
pIC50 [2]: 9.14
pIC50 [3]: 9.55

SMILES: CC(C)(C)OC(=O)Cn1cc(-c2ccc3c(c2)ncn3-c2ccc(CC(=O)Nc3cc(C(C)(C)C)no3)cc2)cn1
pIC50 [5]: 8.19

SMILES: COc1cc2nccc(Oc3ccc(NC(=O)C4(C(=O)Nc5ccc(F)cc5)CC4)cc3)c2cc1OC [CABOZANTINIB]
pIC50 [6]: 5.44
pIC50 [7]: 5.14
pIC50 [8]: 5.44
pIC50 [9]: 5.19
pIC50 [10]: 5.23

SMILES: CNC(=O)c1cc(Oc2ccc(NC(=O)Nc3ccc(Cl)c(C(F)(F)F)c3)cc2)ccn1 [SORAFENIB]
inhibition in vivo at 60 mg/kg [11]: 34%
pIC50 [12]: 6.02
pIC50 [7]: 5.35
pIC50 [9]: 5.48
Activity [13]: ~ 16.32%
pIC50 [14]: 6.24
pIC50 [10]: 5.27
